The target of test [1] is T1, 5-HT2A (Homo sapiens, UniProt P28223). The experiment in a line: [3H]-ketanserin displacement, 5-HT2A membranes. The class given is binding. Also noted: ES-313-M400UA (membranes); host or cells: CHO-K1. Particulars: [3H]-ketanserin displacement (n = 2); read-out: 5-HT2A pKi Mean ± SEM (converted).
Test [2] addresses T1, 5-HT2A. The experiment in a line: cell-based. As to conditions: for Emax: read-out: 5-HT2A Gq Emax (% 5-HT), BRET, mean ± SEM. Also noted: expressed in transfected cells; host or cells: HEK293T, transient.
The target in test [3] is T1, 5-HT2A. Kind of test: cell-based. Also noted: expressed in transfected cells; host or cells: HEK293T, transient. As to conditions: for Emax: read-out: 5-HT2A β-arrestin Emax (% 5-HT), BRET, mean ± SEM.
Test [4] relates to 5-HT2A. Kind of test: Ca2+ flux assay, 5-HT2A. Type of test: cell-based, human. Particulars: Gq/11 Ca2+ mobilization; higher number = skewed towards 5-HT2A. As to the method: (§1) Cell lines were maintained in DMEM containing 10% FBS, 10 μg/mL Blasticidin (Invivogen), and 100 μg/mL Hygromycin B (GoldBio). At least 20-24 hours before the assay, receptor expression was induced with tetracycline ([…]) and cells were seeded into 384-well poly-L-lysine-coated black plates at a density of 7,500 cells/well in DMEM containing 1% dialyzed FBS. On the day of the assay, the cells were incubated for 1 h at 37° C. with Fluo-4 Direct dye (Invitrogen, 20 μl/well) reconstituted in drug buffer (20 mM HEPES-buffered HBSS, pH 7.4) containing 2.5 mM probenecid. Drug dilutions were prepared at 5X final concentration in McCorvy buffer (20 mM HEPES-buffered HBSS, 0).1% BSA, 0.01% ascorbic acid pH 7.4). After dye load, cells were allowed to equilibrate to room temperature for 15 minutes, and then placed in a FLIPR^TETRA fluorescence imaging plate reader (Molecular Devices). Fluorescence for the FLIPR^TETRA were programmed to read baseline fluorescence for 10 s (1 read/s), and afterward 5 μl of drug per well was added and read for a total of 5-10 min (1 read/s). Fluorescence in each well was normalized to the average of the first 10 reads for baseline fluorescence, and then either maximum-fold peak increase over basal or area under the curve (AUC) was calculated. […] Data was plotted and non-linear regression was performed using “log(agonist) vs. response” in Graphpad Prism 8 to yield Emax and EC50 parameter estimates.

For test [5], the target named is T2, 5-HT1A (Homo sapiens, UniProt P08908).
T2 sequence (P08908 1-422): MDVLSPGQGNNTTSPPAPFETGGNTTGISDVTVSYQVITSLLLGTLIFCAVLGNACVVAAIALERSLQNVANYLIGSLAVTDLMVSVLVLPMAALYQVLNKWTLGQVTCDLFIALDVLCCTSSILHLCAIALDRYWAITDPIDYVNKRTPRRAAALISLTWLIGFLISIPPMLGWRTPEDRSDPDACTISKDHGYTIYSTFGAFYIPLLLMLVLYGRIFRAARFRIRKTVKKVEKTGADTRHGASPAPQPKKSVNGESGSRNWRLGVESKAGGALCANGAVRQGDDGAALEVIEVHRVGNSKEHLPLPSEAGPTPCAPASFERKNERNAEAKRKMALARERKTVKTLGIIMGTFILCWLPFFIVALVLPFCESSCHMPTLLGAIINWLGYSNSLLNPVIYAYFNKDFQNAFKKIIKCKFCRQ
Kind of test: Competitive radioligand binding (NIMH PDSP). As to the method: (§2) Method 1: Competitive binding experiments were performed by the National Institute of Mental Health Psychoactive Drug Screening Program (NIMH PDSP) using described methods or 5-HT2A experiments performed using [3H]-ketanserin displacement in human 5-HT2A expressing membranes. Target compounds were dissolved in DMSO and an initial screen performed to assess displacement of the radioligand from target receptors at a concentration of 10,000 nM. […] For the Ki experiments, compounds were always tested in triplicate on separate plates. Each plate also contained a known ligand for the receptor as a positive control.

Test [6] addresses 5-HT1B (Homo sapiens, UniProt P28222). Kind of test: Competitive radioligand binding (NIMH PDSP). How it is done:
as §2

For test [7], the target named is 5-HT1D (Homo sapiens, UniProt P28221). Kind of test: Competitive radioligand binding (NIMH PDSP). How it is done: as §2
Sequence of 5-HT1D (P28221 whole entry, species assumed): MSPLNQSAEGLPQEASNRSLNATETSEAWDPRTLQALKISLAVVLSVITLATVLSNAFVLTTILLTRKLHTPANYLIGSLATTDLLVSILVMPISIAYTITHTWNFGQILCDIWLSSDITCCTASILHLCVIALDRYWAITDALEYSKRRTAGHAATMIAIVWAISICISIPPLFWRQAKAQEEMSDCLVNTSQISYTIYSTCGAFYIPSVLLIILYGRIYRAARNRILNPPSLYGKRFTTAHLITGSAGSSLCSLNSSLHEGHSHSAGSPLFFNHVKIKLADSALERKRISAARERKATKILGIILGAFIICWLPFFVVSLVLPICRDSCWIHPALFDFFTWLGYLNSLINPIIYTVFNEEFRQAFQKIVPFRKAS
Test [8] deals with 5-HT1e (Homo sapiens, UniProt P28566). The experiment in a line: Competitive radioligand binding (NIMH PDSP). How it is done:
as §2

Test [9] deals with T1, 5-HT2A. Kind of test: Competitive radioligand binding (NIMH PDSP). How it is done: as §2
Test [10] concerns the target T3, 5-HT3 (Homo sapiens, UniProt P46098).
T3 sequence (P46098 24-478): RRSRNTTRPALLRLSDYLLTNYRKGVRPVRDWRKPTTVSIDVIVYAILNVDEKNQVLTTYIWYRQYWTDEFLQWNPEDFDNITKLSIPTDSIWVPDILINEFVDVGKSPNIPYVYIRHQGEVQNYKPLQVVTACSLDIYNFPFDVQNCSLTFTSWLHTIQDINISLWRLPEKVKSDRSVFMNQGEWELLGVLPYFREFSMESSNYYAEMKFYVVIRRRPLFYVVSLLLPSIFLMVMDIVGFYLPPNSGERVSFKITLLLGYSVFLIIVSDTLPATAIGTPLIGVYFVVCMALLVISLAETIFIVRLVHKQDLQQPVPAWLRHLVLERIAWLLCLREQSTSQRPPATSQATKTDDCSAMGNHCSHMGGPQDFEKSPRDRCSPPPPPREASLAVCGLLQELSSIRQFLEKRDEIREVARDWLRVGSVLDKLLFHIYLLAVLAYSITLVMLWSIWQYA
The experiment in a line: Competitive radioligand binding (NIMH PDSP). How it is done:
as §2

The target of test [11] is T1, 5-HT2A. Kind of test: Ca2+ flux assay, 5-HT2A. Type of test: cell-based. Also noted: expressed in transfected cells. Particulars: for EC50: 5-HT2A EC50, nM, Ca2+ flux; for Emax: read-out: 5-HT2A Emax % 5-HT, Ca2+ flux. How it is done: as §1
Test [12] deals with T4, 5-HT2B (Homo sapiens, UniProt P41595). The experiment in a line: Ca2+ flux assay, 5-HT2B. The class given is cell-based. Also noted: expressed in transfected cells. As to conditions: Ca2+ flux; for Emax: read-out: 5-HT2B Emax % 5-HT. As to the method:
as §1

In test [13] the target is T5, 5-HT2C (Homo sapiens, UniProt P28335).
T5 sequence (P28335 33-458): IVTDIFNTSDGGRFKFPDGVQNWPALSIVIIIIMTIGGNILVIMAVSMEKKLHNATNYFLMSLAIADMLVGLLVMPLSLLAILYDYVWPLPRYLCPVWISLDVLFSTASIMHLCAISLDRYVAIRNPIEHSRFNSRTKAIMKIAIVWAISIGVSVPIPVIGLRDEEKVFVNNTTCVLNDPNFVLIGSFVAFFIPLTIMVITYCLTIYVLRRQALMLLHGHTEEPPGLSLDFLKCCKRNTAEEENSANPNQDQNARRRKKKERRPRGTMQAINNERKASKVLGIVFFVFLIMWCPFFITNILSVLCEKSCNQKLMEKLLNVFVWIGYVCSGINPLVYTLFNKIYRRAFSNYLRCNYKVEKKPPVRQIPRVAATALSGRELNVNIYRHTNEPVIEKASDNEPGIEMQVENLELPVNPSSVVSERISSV
The experiment in a line: Ca2+ flux assay, 5-HT2C. The class given is cell-based. Details: expressed in transfected cells. Particulars: for Emax: read-out: 5-HT2C Emax % 5-HT. As to the method:
as §1

The target in test [14] is T4, 5-HT2B. The experiment in a line: Competitive radioligand binding (NIMH PDSP). Also noted: expressed in transfected cells. As to the method:
as §2

The target in test [15] is T5, 5-HT2C. Kind of test: Competitive radioligand binding (NIMH PDSP). Also noted: expressed in transfected cells. How it is done:
as §2

The mark [16] stands for this setting: BRET, mean ± SEM, read-out: 5-HT2A β-arrestin recruitment pEC50 (converted).

T4 sequence (P41595 whole entry): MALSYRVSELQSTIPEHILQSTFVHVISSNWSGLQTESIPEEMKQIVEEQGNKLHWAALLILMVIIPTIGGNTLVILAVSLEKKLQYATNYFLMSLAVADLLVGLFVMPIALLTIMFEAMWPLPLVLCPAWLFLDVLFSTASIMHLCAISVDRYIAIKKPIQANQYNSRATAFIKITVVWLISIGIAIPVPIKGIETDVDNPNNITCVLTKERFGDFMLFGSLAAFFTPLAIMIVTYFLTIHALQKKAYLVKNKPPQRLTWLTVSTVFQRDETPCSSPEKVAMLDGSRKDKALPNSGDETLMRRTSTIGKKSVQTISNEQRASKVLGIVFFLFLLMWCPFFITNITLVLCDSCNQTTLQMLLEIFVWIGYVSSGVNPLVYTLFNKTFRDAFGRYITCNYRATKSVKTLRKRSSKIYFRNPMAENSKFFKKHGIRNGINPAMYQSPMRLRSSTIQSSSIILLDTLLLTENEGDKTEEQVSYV
Sequence of 5-HT1B (P28222 whole entry, species assumed): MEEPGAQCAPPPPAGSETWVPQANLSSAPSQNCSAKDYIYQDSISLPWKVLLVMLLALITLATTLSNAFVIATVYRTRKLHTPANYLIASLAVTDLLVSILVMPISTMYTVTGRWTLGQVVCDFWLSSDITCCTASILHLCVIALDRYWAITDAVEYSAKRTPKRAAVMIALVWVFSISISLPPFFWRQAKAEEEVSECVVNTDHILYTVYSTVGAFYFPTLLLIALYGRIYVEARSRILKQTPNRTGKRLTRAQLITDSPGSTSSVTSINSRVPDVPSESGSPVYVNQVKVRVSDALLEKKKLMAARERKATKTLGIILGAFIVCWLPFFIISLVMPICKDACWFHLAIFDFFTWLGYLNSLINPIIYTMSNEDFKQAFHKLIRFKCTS
Sequence of 5-HT1e (P28566 whole entry, species assumed): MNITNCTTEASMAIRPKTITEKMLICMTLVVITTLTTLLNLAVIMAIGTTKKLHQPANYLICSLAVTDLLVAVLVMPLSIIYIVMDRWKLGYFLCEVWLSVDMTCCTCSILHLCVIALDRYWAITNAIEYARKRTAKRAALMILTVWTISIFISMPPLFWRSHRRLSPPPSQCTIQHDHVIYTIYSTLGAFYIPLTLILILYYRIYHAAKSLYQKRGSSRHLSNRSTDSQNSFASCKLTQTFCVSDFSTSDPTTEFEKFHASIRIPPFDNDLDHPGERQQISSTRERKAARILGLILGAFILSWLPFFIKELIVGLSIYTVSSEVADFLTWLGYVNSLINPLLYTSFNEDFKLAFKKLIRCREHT
T1 sequence (P28223 whole entry): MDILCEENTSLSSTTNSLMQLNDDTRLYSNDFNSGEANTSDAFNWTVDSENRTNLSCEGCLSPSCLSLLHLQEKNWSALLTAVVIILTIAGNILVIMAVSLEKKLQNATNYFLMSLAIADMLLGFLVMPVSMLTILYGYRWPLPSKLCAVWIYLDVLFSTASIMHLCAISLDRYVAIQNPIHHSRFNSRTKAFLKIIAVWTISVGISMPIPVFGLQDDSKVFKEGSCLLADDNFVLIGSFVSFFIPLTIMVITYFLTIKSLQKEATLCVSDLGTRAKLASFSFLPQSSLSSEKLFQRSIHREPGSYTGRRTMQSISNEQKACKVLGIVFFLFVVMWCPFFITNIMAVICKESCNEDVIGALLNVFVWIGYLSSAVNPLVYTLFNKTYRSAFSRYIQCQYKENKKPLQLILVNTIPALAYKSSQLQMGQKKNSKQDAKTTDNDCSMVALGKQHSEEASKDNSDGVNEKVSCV

For the compound `COc1cc(OC)c(OC)cc1CCNCc1cccc2c1oc1ccccc12` [(74), N-(dibenzo-[b, d]-furan-4-ylmethyl)-2-(2,4,5-trimethoxyphenyl)-ethan-1-amine], the Ki in test [1] is 67.6 nM. For the same compound, the EC50 in [2] (BRET, mean ± SEM, read-out: 5-HT2A Gq dissociation pEC50 (converted)) is 81.3 nM; in test [3] (setting [16]) it was 16.2 nM. Also, the maximal response (Emax) worked out at 40.2 ± 1.9% in test [2] and 68.3 ± 3.4% in test [3].
With `COc1cc(OC)c(OC)cc1CCNCc1ccc(-c2ccccc2)o1` [(75)], the Ki in test [1] is 309 nM. For the same compound, the “5-HT2A Gq dissociation pEC50” value in test [2] (BRET, mean ± SEM) is reported as “No activity”. The maximal effect (Emax) in [2] was less than 10%. Moreover, in test [3], the EC50 is 891 nM and the maximal effect (Emax) was found to be 50.3 ± 4.7%.
Consider `COc1cc([N+](=O)[O-])c(OC)cc1CCNCc1cccc2c1OC(F)(F)O2` [25N-NBMDF2 (13), [(2,2-difluoro-2H-1,3-benzodioxol-4-yl)methyl][2-(2,5-dimethoxy-4-nitrophenyl)ethyl]amine], for which, in test [4], the “5-HT2A/5-HT2c Selectivity Factor ΔLog(Emax/EC50)” value is recorded as 252.5. Further, the Ki in test [5] was 1000 nM; in [6], greater than 10000 nM; in test [7], greater than 10000 nM; in [8], greater than 10000 nM; in [9], 1.2 nM; in test [10] it was greater than 10000 nM. Further, the values for the Ki in test [14] and in test [15] were 46.8 nM and 214 nM, respectively. Also, the EC50 in test [11] stood at 3.02 nM; in test [13] (5-HT2C (pEC50 ± SEM)), 437 nM; in [13] (5-HT2C EC50, nM) it was 431 nM. Moreover, the Emax in [11] is 86 ± 2%; in test [12], less than 10%; in test [13], 49 ± 4%. Further, the “5-HT2B EC50, nM” value in [12] is recorded as “No activity”.
As to `COc1cc(OC)c(OC)cc1CCNCc1ccc(-c2ccccc2)s1` [(76), N-((5-phenylthiophen-2-yl)methyl)-2-(2,4,5-trimethoxyphenyl)-ethan-1-amine], the Ki in test [1] is 447 nM. For the same compound, the EC50 in [2] was 1070 nM; in test [3] (setting [16]) it was 91.2 nM. The Emax in test [2] was determined as 57.4 ± 4.6%; in [3] it was 78 ± 4%.
Turning to `COc1cc(OC)c(OC)cc1CCNCc1cccc2ccsc12` [(73), N-(benzo[b]thiophen-7-ylmethyl)-2-(2,4,5-trimethoxyphenyl)-ethan-1-amine], the Ki in test [1] was 29.5 nM.
For `COc1cc(OC)c(OC)cc1CCNCc1cccc(OCc2ccccc2)c1` [(78)], the Ki in test [1] was 251 nM. The maximal response (Emax) is 32.8 ± 4.5% in test [2] and 50.3 ± 4.1% in [3].
On to `COc1cc([N+](=O)[O-])c(OC)cc1CCNCc1ccc(C)cc1` [25N-NB-4-Me (23), [2-(2,5-dimethoxy-4-nitrophenyl)ethyl] [(4-methylphenyl)methyl]amine], for which the “5-HT2A/5-HT2c Selectivity Factor ΔLog(Emax/EC50)” value in test [4] came to 66.1. Besides, the Ki in test [5] is 2630 nM; in [6], greater than 10000 nM; in test [7], greater than 10000 nM; in test [8], greater than 10000 nM; in [9] it was 5.5 nM; in [10], greater than 10000 nM. Moreover, the Ki in [14] was 52.5 nM; in test [15], 631 nM. For the same compound, the EC50 amounted to 38.3 nM in test [11] and 844 nM in test [13] (5-HT2C EC50, nM). Also, the figures for the Emax in test [11], in test [12] and in test [13] were 42 ± 3%, less than 10% and 14 ± 1%, respectively. Moreover, the “5-HT2B EC50, nM” value in [12] is “No activity”.
Turning to `COc1cc([N+](=O)[O-])c(OC)cc1CCNCc1cccc(F)c1` [25N-NB-3-F (24), [2-(2,5-dimethoxy-4-nitrophenyl)ethyl][(3-fluorophenyl)methyl]amine], in test [4], the “5-HT2A/5-HT2c Selectivity Factor ΔLog(Emax/EC50)” value was determined as 154.4. The Ki in test [5] is greater than 10000 nM; in test [6] it was greater than 10000 nM; in test [7], greater than 10000 nM; in test [8] it was greater than 10000 nM; in test [9] it was 3.02 nM; in [10], greater than 10000 nM. The Ki in test [14] was 42.7 nM; in test [15], 224 nM. Moreover, the EC50 in [11] is 2.25 nM; in test [13] (5-HT2C EC50, nM), 149 nM. Further, the results for the maximal response (Emax) in [11], in test [12] and in [13] were 85 ± 2%, less than 10% and 54 ± 1%, respectively. The “5-HT2B EC50, nM” value in test [12] is reported as “No activity”.
Take `COc1cc([N+](=O)[O-])c(OC)cc1CCNCc1ccc(F)cc1` [25N-NB-4-F (25), [2-(2,5-dimethoxy-4-nitrophenyl)ethyl][(4-fluorophenyl)methyl]amine]: the “5-HT2A/5-HT2c Selectivity Factor ΔLog(Emax/EC50)” value in [4] is given as 43.3. The Ki is greater than 10000 nM in test [5]; greater than 10000 nM in test [6]; greater than 10000 nM in [7]; greater than 10000 nM in [8]; 6.17 nM in [9]; greater than 10000 nM in test [10]. For the same compound, the Ki is 85.1 nM in test [14] and 813 nM in [15]. In addition, the EC50 in test [11] was 19.7 nM; in test [13] (5-HT2C EC50, nM) it was 413 nM. In addition, the results for the maximal response (Emax) in test [11], in test [12] and in [13] were 48 ± 2%, less than 10% and 21 ± 2%, respectively. In addition, the “5-HT2B EC50, nM” value in [12] is on record as “No activity”.

Source of the values: patent publication US20240254087A1, “SELECTIVE, PARTIAL, AND ARRESTIN-BIASED 5-HT2A AGONISTS WITH UTILITY IN VARIOUS DISORDERS” (Saint Joseph's University, priority 2021, published 2024).
